The structures appear in SMILES notation. The source made the active and inactive calls. The rule behind the calls is not given here.

Test [1] relates to Rattus norvegicus. The test is described as follows: Antihyperlipidemic activity in Wistar albino rat streptozotocin-induced diabetic model assessed as reduction of serum VLDL-cholesterol level at 20 mg/kg, po qd for 30 days. The class given is functional, organism-based. More on the design: dose 20 mg/kg.
The subject of test [2] is Rattus norvegicus. In words: Antihyperlipidemic activity in Wistar albino rat streptozotocin-induced diabetic model assessed as reduction of serum total cholesterol level at 20 mg/kg, po qd for 30 days. The format is functional, organism-based. Details: dose 20 mg/kg.
In test [3] the test system is Rattus norvegicus. The test is described as follows: Antihyperglycemic activity in Wistar albino rat streptozotocin-induced diabetic model assessed as reduction of blood glucose level at 20 mg/kg, po after 1 hr (reference value: 389.16 +/- 19 mg/dl). The format is functional.
Test [4] relates to Rattus norvegicus. The test is described as follows: Antihyperglycemic activity in Wistar albino rat streptozotocin-induced diabetic model assessed as reduction of blood glucose level at 20 mg/kg, po after 2 hrs (reference value: 386.66 +/- 17.5 mg/dl). The class given is functional.
Test [5] has as its system Rattus norvegicus. The test is described as follows: Antiatherosclerosis activity in Wistar albino rat streptozotocin-induced diabetic model assessed as protection from atherogenicity at 20 mg/kg, po qd for 30 days relative to control. The format is functional.
The subject of test [6] is Rattus norvegicus. In words: Antihyperglycemic activity in Wistar albino rat streptozotocin-induced diabetic model assessed as reduction of blood glucose level at 20 mg/kg, po after 5 hrs (reference value: 372.2 +/- 16.6 mg/dl). The format is functional.
In test [7] the test system is Rattus norvegicus. In words: Renalprotective activity in Wistar albino rat assessed as protection against streptozotocin-induced increase in creatinine level in blood at 20 mg/kg, po qd for 30 days. The format is functional.
Test [8] relates to Rattus norvegicus. In words: Antihyperglycemic activity in Wistar albino rat streptozotocin-induced diabetic model assessed as reduction of blood glucose level at 20 mg/kg, po after 6 hrs (reference value: 372.5 +/- 15.6 mg/dl). The class given is functional.
Test [9] concerns Rattus norvegicus. In words: Antihyperlipidemic activity in Wistar albino rat streptozotocin-induced diabetic model assessed as increase of serum HDL-cholesterol level at 20 mg/kg, po qd for 30 days. The format is functional, organism-based. More on the design: dose 20 mg/kg.
Test [10] deals with Rattus norvegicus. In words: Renalprotective activity in Wistar albino rat assessed as protection against streptozotocin-induced increase in urea level in blood at 20 mg/kg, po qd for 30 days. The format is functional.
In test [11] the test system is Rattus norvegicus. The test is described as follows: Antihyperglycemic activity in Wistar albino rat streptozotocin-induced diabetic model assessed as reduction of blood glucose level at 20 mg/kg, po after 4 hrs (reference value: 373.5 +/- 15.6 mg/dl). The class given is functional.
For test [12], the system named is Rattus norvegicus. The test is described as follows: Antihyperglycemic activity in Wistar albino rat streptozotocin-induced diabetic model assessed as reduction of fasting blood glucose level at 20 mg/kg, po qd measured on day 1 (reference value: 416.4 +/- 24.2 mg/dl). The format is functional.
Test [13] concerns Rattus norvegicus. The test is described as follows: Antihyperglycemic activity in Wistar albino rat streptozotocin-induced diabetic model assessed as reduction of fasting blood glucose level at 20 mg/kg, po qd measured on day 15 (reference value: 404.2 +/- 29.15 mg/dl). The format is functional.
The subject of test [14] is Rattus norvegicus. The test is described as follows: Antihyperglycemic activity in Wistar albino rat streptozotocin-induced diabetic model assessed as increase of body weight at 20 mg/kg, po qd measured on day 15 (reference value: -30.3%). The class given is functional.
The subject of test [15] is Rattus norvegicus. The test is described as follows: Antihyperglycemic activity in Wistar albino rat streptozotocin-induced diabetic model assessed as reduction of fasting blood glucose level at 20 mg/kg, po qd measured on day 30 relative to control. The format is functional.
Test [16] deals with Rattus norvegicus. In words: Antihyperlipidemic activity in Wistar albino rat streptozotocin-induced diabetic model assessed as reduction of serum LDL level at 20 mg/kg, po qd for 30 days. The class given is functional, organism-based. Details: dose 20 mg/kg.
Test [17] has as its system Rattus norvegicus. The test is described as follows: Antihyperlipidemic activity in Wistar albino rat streptozotocin-induced diabetic model assessed as reduction of serum triglyceride level at 20 mg/kg, po qd for 30 days. The class given is functional, organism-based. More on the design: dose 20 mg/kg.
Test [18] relates to Rattus norvegicus. In words: Antihyperglycemic activity in Wistar albino rat streptozotocin-induced diabetic model assessed as reduction of blood glucose level at 20 mg/kg, po after 3 hrs (reference value: 384.33 +/- 17.33 mg/dl). The class given is functional.

Take `COc1ccc(Cl)cc1C(=O)NCCc1ccc(S(=O)(=O)NC(=O)NC2CCCCC2)cc1` [GLYBURIDE]: the outcome in the test with Rattus norvegicus [1], in the test on Rattus norvegicus [2], in the test on Rattus norvegicus [9], with Rattus norvegicus [16] and in the test with Rattus norvegicus [17] was Active. In addition, the Activity amounted to 243.5 mg/dL in the test on Rattus norvegicus [3]; 237 mg/dL in the test on Rattus norvegicus [4]; 55.5% in the test on Rattus norvegicus [5]; 188.1 mg/dL with Rattus norvegicus [6]; 0.425 mg/dL in the test on Rattus norvegicus [7]; 206 mg/dL in the test with Rattus norvegicus [8]. In addition, the Activity in the test with Rattus norvegicus [10] was 49.1 mg/dL; in the test on Rattus norvegicus [11], 197.6 mg/dL; in the test with Rattus norvegicus [12], 356 mg/dL; in the test with Rattus norvegicus [13], 204 mg/dL; with Rattus norvegicus [14], -10%; in the test on Rattus norvegicus [15], 188.1 mg/dL. In addition, the Activity in the test on Rattus norvegicus [18] is 213.3 mg/dL.

These data come from ChEMBL document CHEMBL2412969, “Antihyperglycemic and antihyperlipidemic activities of 2-(4-[(2-hydroxybenzyl) amino]-phenyl amino-methyl)-phenol in STZ induced diabetic rats” (Eur J Med Chem, 2013).
